Experimental data: patent US20090239926A1, “METHODS FOR THE TREATMENT OF PSORIASIS OR PSORIATIC ARTHRITIS USING CYCLOPROPYL-N-CARBOXAMIDE” (priority 2008, published 2009)
Where “and” joins values, the source holds several entries; their conditions need not be identical. Equal entries are not always repeated.

Columns and labels:
[1] = target: T1, PDE5 from human platelets (Homo sapiens, UniProt O76074); experiment: Specificity: PDE5; type: biochemical
T1 construct: PDE3 and PDE5 from human platelets; from tissue; host or cells: human platelets
Method: The specificity of Compound A for PDE4 was assessed by testing at a single concentration (10 μM) against bovine PDE1, human PDE2, PDE3 and PDE5 from human platelets, and PDE6 from bovine retinal rod outer segments.

[2] = test system: collagen-induced arthritis in male DBA/1 mice; experiment: Type II collagen-induced mice arthritis model; type: in vivo; conditions: 25 mg/kg orally once a day for 10 days
Method: Collagen-Induced Arthritis Animal Model: Type II collagen purified from the cartilage of a young calf was dissolved at 4 mg/ml in 0.1M acetic acid and emulsified with an equal volume of complete Freund's adjuvant (CFA). DBA/1 mice (8-12 weeks of age) were then immunized at two sites at the base of the tail on Day 1 with 100 μl of the emulsion.
Treatment regime and measurement of clinical score: 14 animals per test group were treated orally once a day for 10 days (Days 1-10) with vehicle (0.5% carboxymethyl-cellulose/0.25% Tween 80), or Compound A suspended in vehicle at 5 mg/kg or 25mg/kg. The experiment was terminated on Day 10. Mice were monitored daily for signs of arthritis and scored using an established clinical scoring system, where: 0=normal, 1=slight swelling and/or erythema, and 2=pronounced edematous swelling. Each limb was graded, giving a maximum score of 8 per mouse. In addition, paw-swelling was measured using calipers.
Histology: At the end of the experiment, paws from treated mice were fixed in formal saline, decalcified and embedded in wax, sectioned and stained with hematoxylin and eosin. […]

[3] = test system: LPS-stimulated monocyte TNF-α production; experiment: LPS-induced TNF-α production in monocytes; type: cell-based; conditions: Homo sapiens, LPS 10 ng/ml, 24 hours
Method: LPS-induced TNF-α production in Monocytes: Monocytes separated from human peripheral blood mononuclear cells (PBMCs) were plated into a 96-well flat bottom plate at 1×10^5/well in RPMI (5% heat inactivated fetal calf serum (FCS) and then treated with increasing concentrations of Compound A and control (in triplicate). Following a 30 minute pre-incubation period, the monocytes were stimulated with LPS (10 ng/ml) and cultured for 24 hours at 37° C. in 5% CO2. The supernatants are then harvested and analyzed by ELISA.

[4] = test system: cAMP in PGE2-stimulated human PBMC; experiment: PGE2-induced cAMP elevation in human PBMC; type: cell-based; conditions: PGE2 10 μM
Text: Prostaglandin E2 (PGE2) binds to prostanoid receptors on monocytes, T cells and other leukocytes and consequently elevates intracellular cAMP levels, resulting in inhibition of cellular responses. The combination of PGE2 and a PDE4 inhibitor synergistically elevates cAMP levels in these cell types, and the elevation of cAMP in PBMC caused by PDE4 inhibitors in the presence of PGE2 is proportional to the inhibitory activity of that PDE4 inhibitor.
Human PBMCs were isolated as described above and plated in 96-well plates at 1×10^6 cells per well in RPMI-1640. The cells were pre-treated with Compound A in a final concentration of 2% DMSO in duplicate at 37° C. in a humidified incubator at 5% CO2 for one hour. The cells were then stimulated with PGE2 (10 μM) (Sigma) for one hour. The cells were lysed with HCl, 0.1N final concentration to inhibit phosphodiesterase activity and the plates were frozen at −20° C. The cAMP produced was measured using cAMP (low pH) Immunoassay kit (R&D Systems).

inhibition at 10 µM [1]: -7% | IC50 [3]: 40 nM
Structure (SMILES): CCOc1cc([C@@H](CS(C)(=O)=O)N2Cc3cccc(NC(=O)C4CC4)c3C2=O)ccc1OC [Compound A, cyclopropyl-N-{2-[(1S)-1-(3-ethoxy-4-methoxyphenyl)-2-(methylsulfonyl)ethyl]-3-oxoisoindoline-4-yl}carboxamide]
clinical severity of arthritis (clinical score) ([2]; FIG. 3): effective in reducing the clinical severity of arthritis | histological severity of arthritis ([2]; P<0.05, FIG. 4): reduced the histological severity of arthritis | EC50 [4]: 6.1 µM and 2.9 µg/mL
